{
  "source": "paper PMC5193436",
  "about": "(PLoS ONE, 2016)",
  "target": "T1, Enolase 1 (αEnolase) (Homo sapiens, UniProt P06733)",
  "T1 construct": "gene ENO1; recombinant ENO1",
  "T1 sequence (P06733 2-434)": "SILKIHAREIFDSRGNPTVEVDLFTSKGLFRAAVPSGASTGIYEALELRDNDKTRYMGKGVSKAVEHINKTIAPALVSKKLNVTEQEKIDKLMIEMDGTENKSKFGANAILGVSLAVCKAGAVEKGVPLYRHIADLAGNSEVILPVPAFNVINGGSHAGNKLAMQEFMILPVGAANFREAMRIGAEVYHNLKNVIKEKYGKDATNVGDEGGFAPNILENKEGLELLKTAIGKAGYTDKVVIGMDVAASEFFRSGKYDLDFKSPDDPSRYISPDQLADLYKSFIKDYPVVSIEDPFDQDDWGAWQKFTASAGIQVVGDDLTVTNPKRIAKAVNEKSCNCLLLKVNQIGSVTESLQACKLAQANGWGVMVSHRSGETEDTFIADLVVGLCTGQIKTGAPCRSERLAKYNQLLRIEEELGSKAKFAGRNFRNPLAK",
  "test": "direct spectrophotometric PEP assay ([…] nm) with purified recombinant ENO1; NADH-coupled assay in lysates",
  "format": "biochemical",
  "data": [
    {"smiles": "O=C1C(P(=O)(O)O)CC(O)N1O", "note": "(stereo not shown) [SF2312, 3-dihydroxyphosphoryl-1,5-dihydroxy-2-pyrrolidone]", "values": [
      {"measurement": "direct spectrophotometric PEP assay (240 nm) with purified recombinant ENO1; NAD", "result": "SF2312 (c) on Enolase activity in purified recombinant ENO1 and ENO2 was determined using the direct PEP-detection assay"}
    ]}
  ]
}
